These are literature values, as cited in patent US20210244941A1, “METHODS AND APPARATUS FOR A WEARABLE ELECTRONIC DIGITAL THERAPEUTIC DEVICE” (KINAPTIC, LLC, priority 2018, published 2021).

Where two headings read alike, the source gives them in different places.

The conditions of data set [1]: rats, oral dosing.
For data set [2] the following is noted: dogs, oral dosing.
Test in data set [3]: not given
This is another data set of the same source.

Setting [4] is: single- (up to 80 mg) and multiple-dose studies, healthy subjects and patients.

Take `O=C(NC[C@H]1CN(c2ccc(N3CCOCC3=O)cc2)C(=O)O1)c1ccc(Cl)s1` [rivaroxaban]: the absolute bioavailability in data set [1] is 57-66%. In data set [2], the absolute bioavailability is 60-86%. In addition, the “increase in area under the concentration-time curve (AUC)” value (animal models) is on record as “dose proportional increase”. The “absorption after oral dosing” value (animal models, oral dosing) is “absorbed rapidly”. The excretion result (rats and dogs, renal and faecal/biliary routes) is on record as “rapidly excreted”. Also, in data set [3] (single doses, humans), the absorption result is given as “rapid absorption”; the oral bioavailability result is on record as “high”; the safety and tolerability entry is “safe and well tolerated”. Moreover, in data set [3] (setting [4]), the accumulation result is on record as “no evidence of accumulation” and the pharmacokinetics versus dose entry is “dose-proportional”.
Take `C[N+](C)(C)CCOC(N)=O` [carbachol]: the sweat induction result in the data set on sweat glands (gel containing carbachol on sensors, sedentary patient) is listed as “effective to induce sweat”. Besides, in the data set with sweat glands (iontophoresis, electrical current at 0.2 milliamps into upper layer of skin), the “physical sensation or discomfort” value is on record as “no physical sensation or discomfort”.
